pIC50: −log10 of the molar value.
System: CN0375-F725-PDC multi-cell spheroids, viability
Assay: Anticancer human tumor CN0375-F725-PDC patient-derived colon carcinoma cell line growth inhibition [TAK]
Settings: for pIC50: curve of first compound; for viability, T/C: stronger effect = lower value
Source text: Combinatorial screen of targeted agents with TAK-243 and ipatasertib in multi-cell type tumor spheroids
A high-throughput screen of multi-cell type tumor spheroids was designed to identify active combinations of targeted small molecules and TAK-243 or ipatasertib. Complex spheroids include a stromal component modeled by human endothelial cells (HUVEC) and fibroblasts modeled by human mesenchymal stem cells (MSCs). The concentration ranges selected for each drug and investigational agent were based upon clinically achievable concentrations if the clinical Cmax of the agent was known.
Compounds. The drugs and investigational agents: TAK-243 (785004), ipatasertib (767898), everolimus (733504), selumetinib (741078), bortezomib (756655), trametinib (758246), ixazomib (758254), vemurafenib (761431), dabrafenib (764134), sapanisertib (764658), alpelisib (765974), and copanlisib (816437), were obtained from the National Cancer Institute (NCI) Developmental Therapeutics Program Chemical Repository. The FDA-approved anticancer drug set is available from the NCI Developmental Therapeutics Program. […] The stock solutions were prepared in dimethyl sulfoxide (DMSO, Sigma-Aldrich, St. Louis, MO, cat. D2650) at 800-fold the tested concentration and stored at -70 degrees C prior to their use. All drugs and investigational agents were tested over a range starting from a high concentration at or near the clinical Cmax and decreasing in half-log increments. If the clinical Cmax for an agent had not been determined, the highest concentration tested was 10 microM.
NCI60 Cell Culture. NCI60 cell lines were obtained from the NCI Developmental Therapeutics Program Tumor Repository. For each lot of cells, the Repository performed Applied Biosystems AmpFLSTR Identifiler testing with PCR amplification to confirm consistency with the published Identifier STR profile for each cell line. Cells were kept in continuous culture for no more than 20 passages. The optimal seeding densities for each of the cell lines at each time point assessed were determined prior to performing the concentration response studies. Briefly, the NCI60 human tumor lines were grown as monolayers in RPMI 1640 medium supplemented with 10% FBS and 2 mmol/L L-glutamine.
An additional 2 lines were from the NCI60 cell line panel including melanomas, MALME-3M and SK-MEL-2. Pooled donor human umbilical vein endothelial cells (HUVEC, Lonza, cat. CC-2519) and human mesenchymal stem cells (hMSC, Lonza, cat. PT-2501) were purchased from Lonza (Walkersville, MD).
PDMR cell lines were grown in complete medium (DC medium): Dulbecco's modified Eagle's medium (DMEM)/F12 supplemented with 5% fetal bovine serum (FBS), 2 mM L-glutamine, 100 U/mL penicillin and 100 µg/ml streptomycin, 0.4 µg/ml hydrocortisone, 10 ng/ml epidermal growth factor (EGF) recombinant human protein, 24 µg/mL adenine, and 0.1 mg/mL primocin. During culture from frozen stock vials, PDMR cells were cultured in the same medium containing 10 µM Y-27632 (see Table 3). The PDCs were cultured in complete DMEM/F12 media without 10 microM Y-27632 dihydrochloride for at least two passages prior to the screen. The pooled donor HUVEC and hMSC were cultured in endothelial cell growth medium 2 (PromoCell, Heidelberg, Germany, cat. C-22011) and mesenchymal stem cell growth medium 2 (PromoCell, cat. C-28009), respectively. For all experiments, HUVEC and hMSC were used at passages </=5.
For the pre-screen, cell seeding densities were determined from a titration spanning the range from 5,000 to 313 cells per well. The mct-spheroids including 60% malignant cells, 25% HUVEC and 15% MSC dispensed as a mixture into U-bottom Ultra-Low Attachment 384-well plates (Corning, NY)
High-throughput Drug Combination Screening.
Prior to their inoculation into 384-well plates, malignant cells, HUVEC, and hMSC were removed from T flasks using TrypLE express (Thermo Fisher Scientific, cat. 12605036) and harvested by centrifugation for 5 min at 233 x g. […]
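Note: spheroids exposed to drugs for seven days.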
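Throughout, for viability, T/C: 100% = DMSO vehicle control wells.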

CC(=O)Nc1cccc(-n2c(=O)n(C3CC3)c(=O)c3c(Nc4ccc(I)cc4F)n(C)c(=O)c(C)c32)c1 + CC(C)NCC(C(=O)N1CCN(c2ncnc3c2C(C)CC3O)CC1)c1ccc(Cl)cc1
pIC50 (second compound 0.3 µM): 8.03 | pIC50 (second compound 0.949 µM): 8.25 | pIC50 (second compound 3 µM): 8.28 | pIC50 (second compound 9.49 µM): 8.31 | pIC50 (second compound 30 µM): 8.91 | viability, T/C (second compound 0.3 µM, first compound 94.9 pM): 99.7% | viability, T/C (second compound 0.3 µM, first compound 0.0003 µM): 93% | viability, T/C (second compound 0.3 µM, first compound 0.000949 µM): 74.4% | viability, T/C (second compound 0.3 µM, first compound 0.003 µM): 68.9% | viability, T/C (second compound 0.3 µM, first compound 0.00949 µM): 48.6% | viability, T/C (second compound 0.3 µM, first compound 0.03 µM): 33.7% | viability, T/C (second compound 0.949 µM, first compound 94.9 pM): 92.4% | viability, T/C (second compound 0.949 µM, first compound 0.0003 µM): 86.3% | viability, T/C (second compound 0.949 µM, first compound 0.000949 µM): 75.5% | viability, T/C (second compound 0.949 µM, first compound 0.003 µM): 57.1% | viability, T/C (second compound 0.949 µM, first compound 0.00949 µM): 44.3% | viability, T/C (second compound 0.949 µM, first compound 0.03 µM): 31.5% | viability, T/C (second compound 3 µM, first compound 94.9 pM): 88.1% | viability, T/C (second compound 3 µM, first compound 0.0003 µM): 83.5% | viability, T/C (second compound 3 µM, first compound 0.000949 µM): 70% | viability, T/C (second compound 3 µM, first compound 0.003 µM): 56.3% | viability, T/C (second compound 3 µM, first compound 0.00949 µM): 43.6% | viability, T/C (second compound 3 µM, first compound 0.03 µM): 30.1% | viability, T/C (second compound 9.49 µM, first compound 94.9 pM): 81.4% | viability, T/C (second compound 9.49 µM, first compound 0.0003 µM): 82.7% | viability, T/C (second compound 9.49 µM, first compound 0.000949 µM): 69.9% | viability, T/C (second compound 9.49 µM, first compound 0.003 µM): 57.4% | viability, T/C (second compound 9.49 µM, first compound 0.00949 µM): 40.3% | viability, T/C (second compound 9.49 µM, first compound 0.03 µM): 26.1% | viability, T/C (second compound 30 µM, first compound 94.9 pM): 70% | viability, T/C (second compound 30 µM, first compound 0.0003 µM): 67.5% | viability, T/C (second compound 30 µM, first compound 0.000949 µM): 53% | viability, T/C (second compound 30 µM, first compound 0.003 µM): 36.1% | viability, T/C (second compound 30 µM, first compound 0.00949 µM): 24.1% | viability, T/C (second compound 30 µM, first compound 0.03 µM): 13.6%

Reference: PubChem BioAssay AID2060346 (Molecular Pharmacology Branch, DTP, NCI, 2025)
